Reference: PMC6672714 (Frontiers in Physiology, 2019)
pEC50: −log10 of the molar value. Entries after “also recorded” stand apart in the source; their conditions may differ. No end group written: not given here.

Legend:
[1] = test system: cultured chick pituitary cells (GnRH1-induced CART mRNA); type: cell-based, chicken; conditions: H89 10 μM; GnRH1 10 nM, 24 h; N = 4
Method: (§1) As described in our recent studies ([Huang et al., 2014]; [Mo et al., 2015]), anterior pituitaries collected from 1-week-old chicks were sliced and digested by 0.25% trypsin at 37°C for 20 min. The dispersed pituitary cells were cultured at a density of 5 × 10^5 cells/well in Medium 199 supplemented with 15% fetal bovine serum in a Corning Cell BIND 48-well plates (Corning, Tewksbury, MA) at 37°C with 5% CO2. After 24-h culture, the medium was replaced with serum-free M199 medium and the cells were treated with chicken GnRH1/GnRH2 for the duration (12–48 h) or with increasing doses (0.1–100 nM) of each peptide. The total RNA was then extracted from cultured pituitary cells and the expression of CART and β-actin assayed by qPCR.
(§2) “ND” indicates no statistical difference between the two groups. Each data point represents mean ± SEM of four replicates (N = 4). ^**p < 0.01 vs. control; ^#p < 0.01 vs. GnRH1 treatment (in the absence of drug). […] Total ERK2 in cell lysates was also examined and used as internal controls. Note: only a single band for pERK2 or total ERK2 (42 kDa) was detected in cell lysate, because ERK1 gene is lost in chicken genome ([Gerilechaogetu et al., 2009]). The representative sets of independent experimental duplicates are shown here.
(§3) “ND” indicates no statistical difference between the two groups. Each data point represents mean ± SEM of four replicates (N = 4). ^**p < 0.01 vs. control. […] The β-actin in cell lysates were also examined and used as internal controls. The representative sets of independent experimental duplicates are shown here.

[2] = test system: rat GH3 cells (CART mRNA); design: method as in Barrett et al., 2001; conditions: ref Barrett et al., 2001; cited from earlier work
[3] = test system: cultured chick pituitary cells (CART mRNA); experiment: CART mRNA expression in cultured chick pituitary cells, qPCR; type: cell-based, chicken; conditions: N = 4
Source text: Chicken anterior pituitaries were collected either for cell culture, or for total RNA extraction. Total RNA was extracted from chicken tissues or cultured pituitary cells using RNAzol (Molecular Research Center, Cincinnati, OH) and reversely transcribed using M-MLV reverse transcriptase (TaKaRa). Reverse transcription (RT) samples were then used for quantitative real-time PCR (qPCR) assays to investigate the mRNA expression of target genes, as described in our recent studies ([Cai et al., 2015]; [Mo et al., 2015]).
as §1
The data were analyzed by the Student’s t-test (between two groups) or by one-way ANOVA followed by the Dunnett test in GraphPad Prism 5 (GraphPad Software, San Diego, CA). To validate our results, all experiments were repeated at least three times.
The mRNA levels of CART were normalized by β-actin and expressed as the percentage of respective controls. Each value represents the mean ± SEM of four replicates (N = 4). ^*p < 0.05, ^**p < 0.01 vs. respective control. (E) RT-PCR detection of GnRHR2 expression in cultured chick pituitary cells (three replicates). RT was performed in the presence (+) or absence (−) of reverse transcriptase. Parallel PCR of β-actin was performed to serve as an internal control.

[4] = test system: ovine pars tuberalis cells (CART mRNA); design: method as in Barrett et al., 2001; conditions: ref Barrett et al., 2001; cited from earlier work
rats (plasma CART) = test system: rats (plasma CART); design: method as in Stanley et al., 2004; conditions: intraperitoneal administration, ref Stanley et al., 2004; cited from earlier work
[5] = test system: cultured chick pituitary cells (CART mRNA); design: method as in Mo et al., 2015; conditions: chickens; ref Mo et al., 2015; cited from earlier work
CREB phosphorylation = CREB phosphorylation in cultured chick pituitary cells, Western blot; type: cell-based, chicken; conditions: 10 nM, 5 min, duplicates
Source text: as §3

chicks (plasma CART) = experiment: plasma CART levels after intraperitoneal administration in chicks, ELISA; type: in vivo, chicken; conditions: 5 μg/chick, 30 min, male chicks
Method: The levels of CART peptide in chicken plasma was then determined by competitive ELISA assay.
Each data point represents mean ± SEM of seven 19-day-old male individuals (N = 7). ^*p < 0.05 vs. saline (control).

chicken GnRHR2 [6] = experiment: pGL3-CRE-luciferase reporter, cAMP/PKA signaling pathway, CHO cells expressing chicken GnRHR2; type: cell-based; conditions: four replicates
Source text: (§4) Based on the reported cDNA sequences of chicken GnRHR1 and GnRHR2 (accession nos.: NM_204653; NM_001012609) ([Sun et al., 2001]; [Shimizu and Bedecarrats, 2006]), gene-specific primers were used to amplify the open reading frame from adult chicken anterior pituitaries using high-fidelity Taq DNA polymerase (TOYOBO, Japan). The amplified PCR products were cloned into the pcDNA3.1 (+) expression vector (Invitrogen) and sequenced. According to our previously established methods, the signaling property of each receptor was examined in Chinese hamster ovary (CHO) cells using pGL3-NFAT-RE-luciferase ([Wang et al., 2012]), pGL4-SRE-luciferase ([Mo et al., 2015]), and pGL3-CRE-luciferase reporter systems ([Wang et al., 2007]).
(§5) Although two GnRH receptors (GnRHR1 and GnRHR2) have been identified in chickens ([Sun et al., 2001]; [Shimizu and Bedecarrats, 2006]; [Joseph et al., 2009]), their downstream signaling pathways have not been fully characterized.
(§6) Figure 5 Activation of chicken GnRHR1 or GnRHR2 expressed in CHO cells by chicken GnRH1 or GnRH2, monitored by pGL3-NFAT-RE-luciferase (A,D), pGL4-SRE-luciferase (B,E), and pGL3-CRE-luciferease (C,F) reporter systems. […] Each data point represents mean ± SEM of four replicates (N = 4).

chicken GnRHR1 [7] = experiment: pGL4-SRE-luciferase reporter, MAPK/ERK signaling pathway, CHO cells expressing chicken GnRHR1; type: cell-based; conditions: four replicates
Source text: as §4, §5, §6

chicken GnRHR2 [8] = experiment: pGL3-NFAT-RE-luciferase reporter, calcium signaling pathway, CHO cells expressing chicken GnRHR2; type: cell-based; conditions: four replicates
Source text: as §4, §5, §6

chicken GnRHR2 [9] = experiment: pGL4-SRE-luciferase reporter, MAPK/ERK signaling pathway, CHO cells expressing chicken GnRHR2; type: cell-based; conditions: four replicates
Source text: as §4, §5, §6

[10] = test system: intact anterior pituitaries (CART secretion); experiment: CART peptide secretion from intact anterior pituitaries incubated in vitro, Western blot; type: cell-based, chicken; conditions: 4 h, intact chick pituitaries, N = 3
Method: As described in our recent study ([Huang et al., 2014]), the intact anterior pituitaries collected from 1-week-old male chicks were washed with PBS and placed on a 48-well plate (NUNC) supplemented with 400 μl serum-free Medium 199 (Invitrogen). After 1-h incubation at 37°C, the medium was replaced by 300 μl serum-free Medium 199 containing different concentrations of chicken GnRH1 or GnRH2 (0.1–100 nM) and incubated for 4 h. […] Parallel blotting of β-actin and CART in pituitary tissue lysates was also conducted.
The intracellular CART (iCART) and β-actin levels in the pituitary tissue lysate were also examined in parallel. […] Each data point represents mean ± SEM of three replicates (N = 3). ^*p < 0.05; ^**p < 0.01 vs. respective control. […] One representative set of Western blot is shown at the top of each graph.

chicken GnRHR1 [11] = experiment: three cell-based luciferase reporter assays, GnRHR1 (qualitative); conditions: GnRHR1, CHO cells, calcium, MAPK/ERK and cAMP/PKA reporters
Source text: as §4, §5, §6

ERK2 phosphorylation = ERK2 phosphorylation in cultured chick pituitary cells, Western blot; type: cell-based, chicken; conditions: 10 nM, 10 min, duplicates
Source text: as §2

chicken GnRHR1 [12] = experiment: pGL3-NFAT-RE-luciferase reporter, calcium signaling pathway, CHO cells expressing chicken GnRHR1; type: cell-based; conditions: four replicates
Source text: as §4, §5, §6

chicken GnRHR2 [13] = experiment: three cell-based luciferase reporter assays, GnRHR2 (qualitative); conditions: GnRHR2, CHO cells, calcium, MAPK/ERK and cAMP/PKA reporters
Source text: as §4, §5, §6

chicken GnRHR1 [14] = experiment: pGL3-CRE-luciferase reporter, cAMP/PKA signaling pathway, CHO cells expressing chicken GnRHR1; type: cell-based; conditions: four replicates
Source text: as §4, §5, §6

[15] = test system: rat pituitary (CART secretion); design: method as in Kappeler et al., 2006; conditions: rat pituitary upon perfusion; ref Kappeler et al., 2006; cited from earlier work

In the case of `O=S(=O)(NCCNC/C=C/c1ccc(Br)cc1)c1cccc2cnccc12` [H89], the “effect on GnRH1-induced CART mRNA expression” value [1] is listed as “could abolish GnRH1-induced CART expression” and the “effect on AC activator- or cAMP analog-stimulated CART mRNA levels” value [2] is listed as “abolished”.
In the case of `CCCCCCCCCCCCCC(=O)O[C@@H]1[C@@H](C)[C@@]2(O)[C@@H](C=C(CO)C[C@]3(O)C(=O)C(C)=C[C@@H]23)[C@@H]2C(C)(C)[C@]12OC(C)=O` [PMA, phorbol-12-myristate-13-acetate, reference compound], the “effect on CART mRNA expression” value ([3]; PMA 100 nM, 48 h) is given as “could mimic GnRH1 action” and the “CART mRNA expression” value [4] is given as “enhances CART mRNA expression”.
In the case of “CRH: corticotropin-releasing hormone, hypothalamic factor (literature results only)”, the “plasma CART levels” value (rats (plasma CART)) is given as “increase plasma CART levels in rats” and the “potency as stimulator of pituitary CART secretion and expression” value [5] is given as “potent stimulator of pituitary CART secretion and expression”.
For “GnRH1: chicken gonadotropin-releasing hormone 1, synthesized using solid-phase Fmoc chemistry; an ortholog of mammalian GnRH (QHWSYGLQPG; ends and bridges not checked; UniProt P37042 24-33, looked up)”, the CREB phosphorylation (CREB phosphorylation) was “could enhance CREB phosphorylation”, the “effect on CART mRNA expression, dose dependence” value ([3]; 0–100 nM, 48 h, qPCR) was “stimulate CART expression dose-dependently” and the “treatment time of maximal effect on CART mRNA expression” value ([3]; 10 nM, qPCR) was 48 h. For the same compound, the “effect on CART mRNA expression” value ([3]; 10 nM, time course (12–48 h), qPCR) was “induce CART expression in a time-dependent manner”, the “minimal effective dose, CART mRNA expression” value ([3]; 48 h, qPCR) was 1 nM and the “increase in plasma CART levels vs saline” value (chicks (plasma CART); N = 7, p < 0.05) was “two-fold”. The “plasma CART level” value (chicks (plasma CART); N = 7, saline control 1.3 ng/ml, p < 0.05) was 2.7 ng/mL, the pEC50 (chicken GnRHR2 [6]) was 8.67 and the pEC50 (chicken GnRHR1 [7]) was 6.57. For the same compound, the pEC50 (chicken GnRHR2 [8]) was 8.81, the pEC50 (chicken GnRHR2 [9]) was 7.52 and the “secretion of mature CART peptide” value ([10]; 0–100 nM) was “potently stimulated the secretion of mature CART peptide”. The “minimal effective concentration, CART secretion” value [10] was 1 nM, the “activation of GnRHR1 (luciferase activity)” value (chicken GnRHR1 [11]) was “stimulate the luciferase activities dose-dependently” and the ERK2 phosphorylation (ERK2 phosphorylation) was “could enhance ERK2 phosphorylation”. The pEC50 (chicken GnRHR1 [12]) was 7.95, the “activation of GnRHR2 (luciferase activity)” value (chicken GnRHR2 [13]) was “stimulate the luciferase activities dose-dependently; also recorded: potently activated by both GnRH1 and GnRH2” and the pEC50 (chicken GnRHR1 [14]) was 7.16.
In the case of “GnRH: GnRH perfused on rat pituitary in a previous study (form not specified) (QHWSYGLRPG; ends and bridges not checked; UniProt P07490 24-33, looked up)”, the CART secretion [15] is given as “CART secretion is induced”.
